For assay [1], the system named is newly hatched larvae of Culex quinquefasciatus. Nature of the assay: Insecticidal activity against newly hatched Culex quinquefasciatus larvae. The settings on record: 25 ± 1 °C, 80% relative humidity, dead larvae recorded on 2nd, 4th, 6th and 8th days, two sets of replicates, azadirachtin positive control. Type of assay: in vivo. On the procedure: The insecticidal activity against Culex quinquefasciatus larvae was evaluated according to methods reported in the literature. Newly hatched larvae were housed at 25 ± 1 °C and 80% relative humidity. Two sets of replicates were set up with dimethyl sulfoxide as a negative control, azadirachtin as a positive control, and artificial feed as a blank control. The number of dead larvae was recorded on 2nd, 4th, 6th, and 8th days after treatment.

Assay [2] concerns Vibrio harveyi (ATCC 14126). It is filed as cell-based. The settings on record: V. harveyi ATCC 14126, microplate assay; chloromycetin positive control. On the procedure:
Antibacterial activity was determined against nine pathogenic bacteria, including six Gram-positive bacteria—Methicillin-resistant Staphylococcus aureus (ATCC 43300), […], Staphylococcus albus (ATCC 8799), Staphylococcus aureus (ATCC 6538), Bacillus subtilis (ATCC 21332), and […] —and three Gram-negative bacteria—Vibrio parahaemolyticus (ATCC 17802), V. alginolyticus (ATCC 17749), and V. harveyi (ATCC 14126)—by the microplate assay method. Chloromycetin was used as the positive control.

For assay [3] the following is noted: cited from earlier work. An excerpt:
(§1) Cyclic pentapeptides, a subclass of cyclic peptides, are usually constructed by five amino acid residues. To date, about 60 cyclic pentapeptides have been characterized. Among them, avellanins A–C were exclusively found in Hamigera avellanea, Hamigera ingelheimensis, and Aspergillus petrakii, respectively. […] During our continuing efforts to identify new bioactive metabolites from mangrove-derived fungi [[20],[21],[ ...

Assay [4] relates to quorum-sensing. The conditions noted are these: cited from earlier work.
Source text: as §1

Values after ≈ are worked out from the molar mass of the structure shown. Where a SMILES comes first, the peptide text is derived from it. [ ]: non-standard residue; d: D form. dNMeF = CN[C@H](Cc1ccccc1)C(=O)O; Pip = O=C(O)[C@@H]1CCCCN1; 2Abz = Nc1ccccc1C(=O)O; Abu = CC[C@H](N)C(=O)O

For `CC[C@H](C)[C@@H]1NC(=O)[C@@H](C)NC(=O)[C@@H](Cc2ccccc2)N(C)C(=O)[C@@H]2CCCCN2C(=O)c2ccccc2NC1=O` [compound 2, avellanin E] (cyclo([Pip][dNMeF][dA]I[2Abz])), the “LC50, insecticidal activity” value in assay [1] is reported as 86.6 µM.
What is called MIC is the lowest concentration that inhibits growth of the organism. High values mean a less susceptible organism, low ones a more susceptible organism. Turning to `CC[C@@H]1NC(=O)[C@@H](C)NC(=O)[C@@H](Cc2ccccc2)N(C)C(=O)[C@@H]2CCCN2C(=O)c2ccccc2NC1=O` [compound 4, avellanin G] (cyclo(P[dNMeF][dA][Abu][2Abz])), in assay [2], the MIC was found to be 5.85 µM (≈ 3.12 µg/mL).
On to “L-Pro-Ant-L-Ile-D-Ala-N-Me-D-Phe (head to tail) [compound 5, avellanin A, known cyclic pentapeptide isolated from the fungus]”, for which the “effect on blood pressure” value in assay [3] was “elevates blood pressure”.
Turning to avellanin B [compound 6], the “effect on activity of antineoplastic drugs” value in assay [3] is on record as “improves the activity of antineoplastic drugs”.
Turning to avellanin C, the quorum-sensing inhibitory activity entry in assay [4] was “exhibits quorum-sensing inhibitory activity”.
